This note sets out measurements from ChEMBL document CHEMBL1240429, “N'-[(5-chloro-3-methyl-1-phenyl-1H-pyrazol-4-yl)methylene] 2/4-substituted hydrazides: synthesis and anticonvulsant activity” (Eur J Med Chem, 2010).

The structures appear in SMILES notation. Calls of active or inactive are those of the source. The calls are words filed in the database; no cut-off is given here.

Data set [1] has as its system Mus musculus. Nature of the data set: Anticonvulsant activity in ip dosed albino mouse assessed as protection against MES-induced seizures after 30 mins. The note with it: 0.5 h. Type of data set: functional.
The subject of data set [2] is Mus musculus. The experiment in a line: Anticonvulsant activity in ip dosed albino mouse assessed as protection against MES-induced seizures after 4 hrs. The format is functional.
Data set [3] deals with Mus musculus. Nature of the data set: Anticonvulsant activity in ip dosed albino mouse assessed as protection against scPTZ-induced seizures after 30 mins. The note with it: 0.5 h. The format is functional.
Data set [4] concerns Mus musculus. The experiment in a line: Anticonvulsant activity in ip dosed albino mouse assessed as protection against scPTZ-induced seizures after 4 hrs. Type of data set: functional.
Data set [5] is described as follows: Neurotoxicity in ip dosed albino mouse assessed as inability to maintain equilibrium on rotarod after 30 mins by rotarod test. Type of data set: toxicity, organism-based. The note with it: in vivo. In general terms: The rotarod test checks motor coordination on a turning rod.

`O=C1NC(=O)C(c2ccccc2)(c2ccccc2)N1` [PHENYTOIN]: the ED50 with Mus musculus [1] and in the data set with Mus musculus [2] was 30 mg/kg each time.

In the case of `Cc1nn(-c2ccccc2)c(Cl)c1/C=N/NC(=O)Cc1ccc(Cl)cc1`, the ED50 came out at 100 mg/kg with Mus musculus [3], 100 mg/kg in the data set on Mus musculus [1], 300 mg/kg in the data set on Mus musculus [2] and 300 mg/kg in the data set with Mus musculus [4]. In data set [5], the TD50 at 0.5 h worked out at 300 mg/kg.

Take `Cc1nn(-c2ccccc2)c(Cl)c1/C=N/NC(=O)c1ccc(Cl)cc1`: the ED50 with Mus musculus [3] was found to be 100 mg/kg; with Mus musculus [1], 100 mg/kg; with Mus musculus [2], 300 mg/kg; in the data set with Mus musculus [4], 100 mg/kg. Also, in data set [5], the TD50 at 0.5 h came to 300 mg/kg.

With `Cc1nn(-c2ccccc2)c(Cl)c1/C=N/NC(=O)c1ccc([N+](=O)[O-])cc1`, the 50% effective dose (ED50) amounted to 300 mg/kg in the data set on Mus musculus [3], 100 mg/kg in the data set with Mus musculus [1] and 300 mg/kg in the data set on Mus musculus [2]. Also, the ED50 entry with Mus musculus [4] was “inactive”.

Regarding `Cc1nn(-c2ccccc2)c(Cl)c1/C=N/NC(=O)COc1ccccc1`, the TD50 at 0.5 h in data set [5] is 300 mg/kg.

Turning to `Cc1nn(-c2ccccc2)c(Cl)c1/C=N/NC(=O)c1ccc(F)cc1`, the ED50 in the data set with Mus musculus [3], in the data set on Mus musculus [1], in the data set with Mus musculus [2] and in the data set on Mus musculus [4] was 100 mg/kg each time.

`Cc1ccc(C(=O)N/N=C/c2c(C)nn(-c3ccccc3)c2Cl)cc1`: the TD50 at 0.5 h in data set [5] came out at 100 mg/kg.

Consider `Cc1nn(-c2ccccc2)c(Cl)c1/C=N/NC(=O)c1ccccc1`, for which the TD50 at 0.5 h in data set [5] is 100 mg/kg.

As to `CCCC(CCC)C(=O)[O-].[Na+]` [VALPROATE SODIUM], the 50% effective dose (ED50) in the data set with Mus musculus [3] was 300 mg/kg. Besides, the ED50 entry in the data set with Mus musculus [4] was “inactive”.

Regarding `Cc1nn(-c2ccccc2)c(Cl)c1/C=N/NC(=O)Cc1cccc2ccccc12`, the ED50 in the data set on Mus musculus [3] came out at 300 mg/kg; with Mus musculus [1], 100 mg/kg; in the data set with Mus musculus [2], 100 mg/kg. Besides, in the data set with Mus musculus [4], the ED50 entry is “inactive”.

`Cc1nn(-c2ccccc2)c(Cl)c1/C=N/NC(=O)c1ccc(Cl)cc1Cl`: the ED50 in the data set with Mus musculus [3] and in the data set on Mus musculus [1] was 300 mg/kg each time. The ED50 result with Mus musculus [2] and with Mus musculus [4] was “inactive” throughout.

Usually ED50 stands for the dose that gives a 50% effect, or the effect in half of the subjects. By TD50 is commonly meant the dose at which the toxic effect under study appears in half of the subjects.
